Assay results taken from PMC6848146, “Binding and structural analyses of potent inhibitors of the human Ca^2+/calmodulin dependent protein kinase kinase 2 (CAMKK2) identified from a collection of commercially-available kinase inhibitors” (Scientific Reports, 2019).
Values belong to the molecule of their own block, whether it stands above or below them.

Columns and labels:
CAMKK2-FL = target: T1, CAMKK2-FL (Homo sapiens, UniProt Q96RR4); test: Radiometric enzymatic assay (Eurofins Discovery), Ca2+/Calmodulin present; type: biochemical; conditions: for IC50: 90 µM ATP, single measurement
T1 construct: an enzymatic assay using the full-length protein (CAMKK2-FL); purchased Eurofins Discovery (MO, USA), assay service

[1] = target: T2, CAMKK2-KD (kinase domain of CAMKK2) (Homo sapiens, UniProt Q96RR4); test: DSF thermal-shift screen, 96-well format; type: binding; conditions: 96-well format; 12 µM compound, 2 µM kinase, 2.5% DMSO; single measurement; read-out: ΔTm
T2 construct: the protein kinase domain (amino acids 161–449); hexahistidine (6xHis), TEV-cleavable; made in house
Method: (§1) We employed a thermal-shift assay (Differential Scanning Fluorimetry, DSF)[19] to identify compounds that can bind to the kinase domain of CAMKK2 (CAMKK2-KD). Protein thermal denaturation curves (Fig. 1A,B) were used to calculate the denaturation midpoint temperature (Tm) for the kinase domain of CAMKK2 in the presence of ligands or vehicle only (DMSO). […] DSF screens were performed on purified CAMKK2-KD using a library of commercially available, chemically diverse, ATP-competitive, kinase inhibitors.
SYPRO Orange dye (Invitrogen) was used in 5X as final concentration.
Plates were sealed using optically clear films and transferred to an Mx3005p RT-PCR machine (Agilent).
(§2) For both formats, experiments were performed in singlets.

CAMKK1 = system: CAMKK1; parameters: method as in Anastassiadis et al. (2011); conditions: 0.5 µM compound; ref Anastassiadis et al. (2011); cited from earlier work
CAMKK1-FL = target: T3, CAMKK1-FL (Homo sapiens, UniProt Q8N5S9); test: Radiometric enzymatic assay (Eurofins Discovery), Ca2+/Calmodulin present; type: biochemical; conditions: 200 µM ATP; single measurement
T3 construct: purchased Eurofins Discovery (MO, USA), assay service
Method: All compounds employed in this study were initially developed to target other human protein kinases, and some are known to be quite promiscuous[18],[21].
Reaction conditions for assays using CAMKK1-FL were: 8 mM MOPS pH 7.0, 0.2 mM EDTA, 0.33 mg/mL MBP (myelin basic protein), 0.5 mM calcium chloride, 0.016 mg/ml calmodulin, 10 mM magnesium acetate and [gamma-^33P-ATP] (200 µM). […] The reactions were initiated by the addition of a Mg^2+-ATP mixture. After incubation for 40 minutes at room temperature, the reaction was stopped by the addition of phosphoric acid to a final concentration of 0.5%. […] Following subtraction of the average inhibitor control well counts, results were expressed as a percentage of the mean kinase activity in the positive control sample.

CAMKK2 = system: CAMKK2; parameters: method as in Anastassiadis et al. (2011); conditions: 0.5 µM compound; ref Anastassiadis et al. (2011); cited from earlier work
[2] = target: T2, CAMKK2-KD (kinase domain of CAMKK2); test: DSF thermal-shift screen, 384-well format; type: binding; conditions: 10 µM compound, 1 µM kinase, 0.1% DMSO, single measurement
Method: as §1
DSF experiments in 384-well format followed a protocol previously established at the SGC-UNICAMP and described elsewhere.
The compounds, previously solubilized in DMSO, were used at 10 µM final concentration and 0.1% DMSO. Plates were sealed using optically clear films and transferred to a QuantStudio 6 qPCR instrument (Applied Biosystems). […] Protein in 0.1% DMSO was used as a reference.
as §2

CAMKK2-KD = CAMKK2-KD (Homo sapiens, UniProt Q96RR4); test: Isothermal titration calorimetry (reverse titration); conditions: 20 °C
Method: All ITC experiments described below were performed twice.
Measurements were made using a MicroCal AutoITC200 (Malvern, United Kingdom). […] Small molecule inhibitors were diluted in dialysis buffer. All ITC experiments were performed using a “reverse titration” setup in which the protein (in the syringe) was titrated into the cell containing the inhibitor. Two independent ITC measurements were performed for each compound, data for individual runs were integrated separately to obtain single isotherms, which were plotted and analyzed using Sedphat[37]. […] All measurements were made at 20 °C with mixing (1,000 rpm stirring), and used 1.5 µL injections and 180 s between each injection. NITPIC, SEDPHAT and GUSSI[37] were used to analyze and generate figures for ITC data.

[3] = system: six other kinases (panel of 92 protein kinases); parameters: method as in PMID 17850214; conditions: screened against a panel of only 92 protein kinases; cited from earlier work
[4] = individual ITC experiment, run 1
[5] = individual ITC experiment, run 2

Chain of CAMKK2-KD (Q96RR4 161-449): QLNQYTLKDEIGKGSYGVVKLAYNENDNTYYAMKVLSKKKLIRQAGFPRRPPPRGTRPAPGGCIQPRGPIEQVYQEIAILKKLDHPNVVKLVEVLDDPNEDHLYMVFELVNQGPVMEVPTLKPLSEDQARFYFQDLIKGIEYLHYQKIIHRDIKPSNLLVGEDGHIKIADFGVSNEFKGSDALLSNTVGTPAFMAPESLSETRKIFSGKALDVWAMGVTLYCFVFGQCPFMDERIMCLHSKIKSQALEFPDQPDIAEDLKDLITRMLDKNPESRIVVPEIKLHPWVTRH
T2 sequence (Q96RR4 161-449): as above

- IC50 (CAMKK2-FL): 0.159 µM
- ΔTm at 12 µM [1]: 9.7 °C
- IC50 (CAMKK1-FL): 0.188 µM
SMILES: CC(C)[C@H](CO)Nc1nc(Nc2cc(N)cc(Cl)c2)c2ncn(C(C)C)c2n1 [Aminopurvalanol]
- % Activity Remaining at 0.5 µM, CAMKK1 (CAMKK1): 86.8%
- % Activity Remaining at 0.5 µM, CAMKK2 (CAMKK2): 33.3%

- IC50 (CAMKK2-FL): 0.019 µM
- fold more active towards CAMKK2-FL than CAMKK1-FL (CAMKK2-FL; from IC50 values of Table 1): ~ 10 fold
- ΔTm at 10 µM [2]: 10 °C
- Kd (CAMKK2-KD; ITC KD, serial integrations of two independent experiments): 0.002 µM
- Kd (CAMKK2-KD; KD Run 1, individual ITC experiment, run 1): 0.0026 µM
- Kd (CAMKK2-KD; KD Run 2, individual ITC experiment, run 2): 0.0015 µM
- ΔG Run 1 (CAMKK2-KD; [4]): -11.5 kcal/mol
- ΔH Run 1 (CAMKK2-KD; [4]): -13.2 kcal/mol
- ΔG Run 2 (CAMKK2-KD; [5]): -11.8 kcal/mol
- ΔH Run 2 (CAMKK2-KD; [5]): -13 kcal/mol
- IC50 (CAMKK1-FL): 0.122 µM
SMILES: COCCOc1ccc2c(c1)ncn2-c1ccc2cccc(N3CCC(N)CC3)c2n1 [CP-673451]

SMILES: O=C(O)c1ccc2c3c1cccc3c(=O)n1c3ccccc3nc21 [STO-609]
- IC50 [3]: < 0.25 µM

SMILES: CN[C@@H]1C[C@H]2O[C@@](C)([C@@H]1OC)n1c3ccccc3c3c4c(c5c6ccccc6n2c5c31)C(=O)NC4 [Staurosporine]
- % Activity Remaining at 0.5 µM, CAMKK1 (CAMKK1): -3.13%
- % Activity Remaining at 0.5 µM, CAMKK2 (CAMKK2): 0.24%
